In patent US20040067952A1, “Method and composition for treatment of cancer” (priority 2001, published 2004):
Read-outs that look alike come from different tables or passages of the source.

Assays:
Hep3-B = test: [3H]Thymidine incorporation assay, Hep3-B; format: cell-based; details: Homo sapiens, Hep3B, Hep3-β, 5 days, read-out: % inhibition of [3H] thymidine incorporation (compared to control)
Description: (§1) Method: [^3H]Thymidine incorporation assay was employed to study the effect of clofazimine on cell proliferation. Here, adherent cells (5/000-10/000) were plated into 24-well Corning tissue culture dishes and exposed to culture medium (MEM 5% FBS) containing the vehicle or different concentrations of clofazimine (10^-9 to 10^-5 moles per liter). For Novikoff which is a detached rat cell line, 2000 cells were suspended in 2 ml of DMEM (5%FBS) and kept under the same condition as for attached cells. Media were replaced with fresh media on alternate days. […] The amount of radioactivity incorporated was determined using β-scintillation counter (18). Results are presented as the actual counts per minute against the concentration of the drug used in the culture media or as % inhibition (reduction in thymidine incorporation compared to controls). Treatment of different liver cancer cell lines, HUH-7, HepG2, SKHEP-1, Hep3-B (human cell lines) and Novikoff (rat cell line) with clofazimine led to dose-dependent inhibition of [3H]thymidine incorporation by these cells (Table 1 and FIG. 1). Values represent mean±s.e.m of % inhibition of [3H] thymidine incorporation (compared to control) for each cell line when treated for 5 days with different concentrations of clofazimine.

SKHEP-1 = test: [3H]Thymidine incorporation assay, SKHEP-1; format: cell-based; details: Homo sapiens, SK-HEP1, 5 days, read-out: % inhibition of [3H] thymidine incorporation (compared to control)
Description: as §1

HT-29 = test: [3H]thymidine incorporation, HT-29 colorectal cancer cells; format: cell-based; details: Homo sapiens, 120 h; HT-29, 1 μM clofazimine, 5 day treatment period; read-out: inhibition of cell proliferation
HUH-7 = test: [3H]Thymidine incorporation assay, HUH-7; format: cell-based; details: Homo sapiens, 5 days, read-out: % inhibition of [3H] thymidine incorporation (compared to control)
Description: as §1

C-170 = test: [3H]thymidine incorporation, C-170 colorectal cancer cells; format: cell-based; details: Homo sapiens, C170, 120 h; C-170, 1 μM clofazimine, 5 day treatment period; read-out: inhibition of cell proliferation
Description: (§2) Method: [^3H]Thymidine incorporation assay was employed to study the effect of clofazimine on cell proliferation. Here, adherent cells (5/000-10/000) were plated into 24-well Corning tissue culture dishes and exposed to culture medium (MEM 5% FBS) containing the vehicle or different concentrations of clofazimine (10^−9 to 10^−5 moles per liter). For Novikoff which is a detached rat cell line, 2000 cells were suspended in 2 ml of DMEM (5%FBS) and kept under the same condition as for attached cells. Media were replaced with fresh media on alternate days. At the end of the treatment period (5-10 days), cell cultures were assayed for thymidine incorporation by the addition of 0.5 μCi of [3H]thymiydine to each well for the last 4 h of culture. The amount of radioactivity incorporated was determined using β-scintillation counter (18). Results are presented as the actual counts per minute against the concentration of the drug used in the culture media or as % inhibition (reduction in thymidine incorporation compared to controls). Treatment of different liver cancer cell lines, HUH-7, HepG2, SKHEP-1, Hep3-B (human cell lines) and Novikoff (rat cell line) with clofazimine led to dose-dependent inhibition of [3H]thymidine incorporation by these cells (Table 1 and FIG. 1).

LOVO = test: [3H]thymidine incorporation, LOVO colorectal cancer cells; format: cell-based, human; details: 5 day treatment
Description: FIG. 8: [3H]thymidine incorporation expressed as counts per minute in LOVO cells (colorectal cancer cell line) treated in culture for 5 days with different concentrations of clofazimine.
as §2, with “Treatment of different liver cancer cell lines, HUH-7, HepG2, SKHEP-1, Hep3-B (human cell lines) and Novikoff (rat cell line) with clofazimine led to dose-dependent inhibition of [3H]thymidine incorporation by these cells (Table 1 and FIG. 1).” left out

HepG2 = test: [3H]Thymidine incorporation assay, HepG2; format: cell-based; details: Homo sapiens, 5 days, read-out: % inhibition of [3H] thymidine incorporation (compared to control)
Description: as §1

[1] = reference 9; cited from earlier work
HCC = HCC patients, cited from earlier work
[2] = Solubility and stability in lipiodol; format: physicochemical
Novikoff = test: [3H]Thymidine incorporation assay, Novikoff; format: cell-based; details: Rattus norvegicus, 5 days, read-out: % inhibition of [3H] thymidine incorporation (compared to control)
Description: as §1

With CC(C)/N=c1/cc2n(-c3ccc(Cl)cc3)c3ccccc3nc-2cc1Nc1ccc(Cl)cc1 [clofazimine, 3-(4-chloroanilino)-10-(4-chlorophenyl)-2, 10-dihydro-2-(isopropylimino)-phenazine] the inhibition at 0.01 µM (Hep3-B; clofazimine 0.01 μM) was 28.4 ± 7.4%, the inhibition at 0.1 µM (Hep3-B; clofazimine 0.1 μM) was 62.3 ± 3.1% and the inhibition at 0.5 µM (Hep3-B; clofazimine 0.5 μM) was 91.6 ± 1.1%. For the same compound, the inhibition at 1 µM (Hep3-B; clofazimine 1.0 μM) was 94.3 ± 0.07%, the inhibition at 5 µM (Hep3-B; clofazimine 5.0 μM) was 95.4 ± 1.4% and the inhibition at 0.01 µM (SKHEP-1; SKHEP-1, clofazimine 0.01 μM) was 30.3 ± 2.9%. It also gave an inhibition at 0.1 µM (SKHEP-1; SKHEP-1, clofazimine 0.1 μM) of 62.7 ± 7.1%, an inhibition at 0.5 µM (SKHEP-1; SKHEP-1, clofazimine 0.5 μM) of 69 ± 3.2% and an inhibition at 1 µM (SKHEP-1; SKHEP-1, clofazimine 1.0 μM) of 70.9 ± 2.1%. The inhibition at 5 µM (SKHEP-1; SKHEP-1, clofazimine 5.0 μM) was 97.1 ± 1.7%, the inhibition at 1 µM (HT-29) was over 70% and the inhibition at 0.01 µM (HUH-7; HUH-7, clofazimine 0.01 μM) was 0%. The inhibition at 0.1 µM (HUH-7; HUH-7, clofazimine 0.1 μM) was 38.3 ± 7.2%, the inhibition at 0.5 µM (HUH-7; HUH-7, clofazimine 0.5 μM) was 51.1 ± 3.4% and the inhibition at 1 µM (HUH-7; HUH-7, clofazimine 1.0 μM) was 88.9 ± 1.1%. The inhibition at 5 µM (HUH-7; HUH-7, clofazimine 5.0 μM) was 96.7 ± 0.9%, the inhibition at 1 µM (C-170) was over 70% and the “inhibition of proliferation as measured by [3H]thymidine incorporation” value (LOVO) was “profound inhibition of proliferation”. For the same compound, the inhibition at 0.01 µM (HepG2; HepG2, clofazimine 0.01 μM) was 21 ± 1.9%, the inhibition at 0.1 µM (HepG2; HepG2, clofazimine 0.1 μM) was 38.2 ± 2.2% and the inhibition at 0.5 µM (HepG2; HepG2, clofazimine 0.5 μM) was 52.9 ± 4.7%. For the same compound, the inhibition at 1 µM (HepG2; HepG2, clofazimine 1.0 μM) was 75.6 ± 2.7%, the inhibition at 5 µM (HepG2; HepG2, clofazimine 5.0 μM) was 92.4 ± 1.9% and the “log p (octanol/water)” value [1] was 7.4. The objective response (HCC; clofazimine alone, Falkson et al.) was “no objective response”, the objective response (HCC; oral clofazimine, 3/30, Ruff et al.) was 10% and the “stabilization of the disease” value (HCC; oral clofazimine, 13/30, for up to 20 months, Ruff et al.) was 43%. For the same compound, the solubility in lipiodol [2] was “highly soluble”, the stability in lipiodol [2] was “stable” and the inhibition at 0.01 µM (Novikoff; clofazimine 0.01 μM) was 0%. For the same compound, the inhibition at 0.1 µM (Novikoff; clofazimine 0.1 μM) was 0%, the inhibition at 0.5 µM (Novikoff; clofazimine 0.5 μM) was 11.7 ± 3.3% and the inhibition at 1 µM (Novikoff; clofazimine 1.0 μM) was 18.9 ± 2.9%. It also gave an inhibition at 5 µM (Novikoff; clofazimine 5.0 μM) of 42.7 ± 4.1%.
